Data reported in a melting point compilation (Tetko et al.).

Row | melting point | SMILES
1 | 62 to 64 °C | O=C(CCl)c1ccc2c(c1)CCCC2
2 | 214 to 216 °C | Cn1ccc(C(=O)NCCC(=O)O)cc1=O
3 | 73 to 75 °C | NC(=NO)c1cccc(F)c1
4 | 262 to 264 °C | Sc1nc(-c2ccccc2)c[nH]1
5 | 61 to 63 °C | O=C(O)CCc1ccc(OC(F)F)cc1
6 | 147 to 149 °C | Cc1ncc(NC(=O)OC(C)(C)C)s1
7 | 93 to 95 °C | N#CCC(=O)NCc1ccco1
8 | 149 to 151 °C | Nc1nnc(CCCc2cccs2)o1
9 | 59 to 61 °C | CCC1(CO)CCNCC1
10 | 130 to 132 °C | Cc1nn(-c2ccccc2)c(CCl)c1C#N
11 | 124 to 126 °C | O=C(CCl)NC(c1ccc(F)cc1)c1cccs1 (configuration not stated)
12 | 146 to 148 °C | CNCCCc1cc(-c2ccc(F)cc2)no1
13 | 169 to 171 °C | C=CC(=O)NC(N)=O
14 | 73 to 75 °C | Cc1ccc(NC(=O)OCC(F)(F)F)s1
15 | 89 to 91 °C | N#Cc1cccc(NC(=O)CC2CC2)c1
16 | 263 to 265 °C | CNC(=O)c1ccc(C(=O)O)cn1
17 | 212 to 214 °C | c1ccc2oc(-c3nn[nH]n3)cc2c1
18 | 199 to 201 °C | NC(=S)C(NC(=O)c1ccccc1)C1CC1 (configuration not stated)
19 | 86 to 88 °C | CCn1cc(S(N)(=O)=O)cn1
20 | 86 to 88 °C | CC(Cl)C(=O)NCC(=O)c1ccccc1 (configuration not stated)
21 | 379 to 381 °C | CC(=O)Nc1ccc(N2C(=O)c3ccc(C(=O)O)cc3C2=O)cc1
22 | 279 to 281 °C | Fc1cc(F)cc(-c2n[nH]c(S)n2)c1
23 | 92 to 94 °C | Nc1ccccc1NC12CC3CC(CC(C3)C1)C2
24 | 175 to 177 °C | CN(C1CCCCC1)S(=O)(=O)c1ccc(S)nc1
25 | 68 to 70 °C | CC(C)OC(=O)CC(N)=S
26 | 149 to 151 °C | Cc1cc(C)c(C)c(S(N)(=O)=O)c1C
27 | 159 to 161 °C | Nc1ccc(S(=O)(=O)Nc2ccccc2Cl)cc1

Row | melting point | SMILES
28 | 231 to 233 °C | O=c1[nH]cnc2scc(-c3ccc(F)cc3)c12
29 | 84 to 86 °C | COc1cc(CC#N)ccc1[N+](=O)[O-]
30 | 246 to 248 °C | Cn1ncc2cn[nH]c2c1=O
31 | 159 to 161 °C | CCNC(=O)Nc1cccc(F)c1C(=O)O
32 | 228 to 230 °C | NC(CC(=O)O)C1CCOCC1 (configuration not stated)
33 | 260 to 262 °C | O=C(Nc1ccccc1)Nc1ccc(C(=O)O)cc1
34 | 241 to 243 °C | O=C(O)c1cccc(S(=O)(=O)Nc2ccc(Br)cc2)c1
35 | 69 to 71 °C | COc1nc(N(C)C)sc1C=O
36 | 189 to 191 °C | O=C(O)c1c(O)cc(Cl)cc1Cl
37 | 96 to 98 °C | COc1ccc2oc(C(C)=O)c(C)c2c1
38 | 219 to 221 °C | Cc1[nH]nc(C(N)=O)c1N
39 | 52 to 53 °C | C=CCOc1c(Br)cc(C=O)cc1OC
40 | 194 to 196 °C | CCOC(=O)c1cc2c(F)cc(Br)cc2[nH]1
41 | 72 to 74 °C | O=C(CBr)c1ccc2c(c1)CCO2
42 | 338 to 340 °C | Nc1ncc(C(=O)O)cc1Cl
43 | 143 to 145 °C | Nc1ccc(F)c(NS(=O)(=O)c2ccccc2)c1
44 | 180 to 182 °C | O=C(O)c1cc([N+](=O)[O-])cc(Cl)c1F
45 | 205 to 207 °C | O=C(O)c1ccnc(N2CCCC2)n1
46 | 102 to 104 °C | CC(C)(C)c1cc(N)n(CCO)n1
47 | 117 to 119 °C | CCn1ncc2ccc(N)cc21
48 | 154 to 156 °C | O=C(O)CSc1ncn[nH]1
49 | 100 to 102 °C | CCOC(=O)c1sc(-c2ccc(Cl)cc2Cl)cc1N
50 | 107 to 109 °C | COc1ccc(S(=O)(=O)N(C)C)cc1NC(=O)C(C)Cl (configuration not stated)
51 | 88 to 90 °C | CC(C)n1ncc2cc(S(=O)(=O)Cl)ccc21
52 | 182 to 184 °C | COc1ccccc1Nc1nnc(S)s1
53 | 226 to 230 °C | O=C(O)c1cnco1

More lines, now with the values behind:

Row | SMILES | melting point
54 | Nn1c(S)nnc1-c1cccnc1 | 190 to 192 °C
55 | O=S(=O)(Cl)c1ccc(CCCl)cc1 | 53 to 55 °C
56 | Cc1ncc(C(=O)O)c(C)n1 | 151 to 153 °C
57 | O=Cc1cnc(-c2cccnc2)s1 | 139 to 141 °C
58 | CC(C)(C)OC(=O)NC1CCN(C(=O)CC(F)(F)F)CC1 | 147 to 149 °C
59 | ClCc1cc(Cl)cc2c1OC(c1ccccc1)OC2 (configuration not stated) | 111 to 113 °C
60 | Cc1cc(O)nc(C(C)Cl)n1 (configuration not stated) | 132 to 134 °C
61 | Cc1ccn2c(C(=O)O)cnc2c1 | 159 to 161 °C
62 | CCCNc1ccc(CN2CCN(C)CC2)cn1 | 69 to 71 °C
63 | Sc1ncn(-c2ccccc2)n1 | 173 to 175 °C
64 | O=C(CCl)NCc1ccccc1[N+](=O)[O-] | 93 to 95 °C
65 | Nc1ccc(F)c(NS(=O)(=O)Cc2ccccc2)c1 | 172 to 174 °C
66 | O=C(C(=O)c1ccccn1)c1ccccn1 | 154 to 156 °C
67 | CC1CCC2(CC1)NC(=O)N(N)C2=O (configuration not stated) | 118 to 120 °C
68 | COC(=O)c1ccc(OC)cc1N | 76 to 78 °C
69 | CCCCc1ccc(-n2nnnc2S)cc1 | 88 to 92 °C
70 | O=C(O)CCSc1nc2ccccc2s1 | 149 to 151 °C
71 | Nc1nnc(-c2ccc(Br)cc2)o1 | 273 to 275 °C
72 | Cc1cc(CCCC(=O)O)c(C)s1 | 56 to 58 °C
73 | COc1ccc(NS(C)(=O)=O)c(N)c1 | 144 to 146 °C
74 | CCOC(=O)c1nc(C)n[nH]1 | 184 to 186 °C
75 | O=C(O)c1cc2c(F)cccc2s1 | 214 to 216 °C
76 | COC(=O)c1ccc(Cl)c(N)c1 | 81 to 83 °C
77 | CCOC(=O)Cn1c(=O)[nH]c2cc(Br)cnc21 | 206 to 208 °C

Row | SMILES | melting point
78 | O=C(O)c1cnn(-c2ccccc2F)c1 | 160 to 162 °C
79 | Brc1cnc2c(c1)NCCO2 | 149 to 151 °C
80 | Cc1ccnc(-n2cc(S(=O)(=O)Cl)cn2)c1 | 104 to 106 °C
81 | COc1ccccc1-c1cc(N)n(-c2ccccc2)n1 | 119 to 121 °C
82 | Cc1ccc(OC(C)C(=O)O)cc1 (configuration not stated) | 101 to 103 °C
83 | Nc1ccc(OCc2ccccn2)c(F)c1 | 67 to 69 °C
84 | CC(C)Cn1c(=O)[nH]c(=O)c2c(S)nc(CC3CC4CCC3C4)nc21 (configuration not stated) | 311 to 313 °C
85 | Cc1ccccc1NC(=O)CC#N | 133 to 135 °C
86 | CCCOc1ccc2c(c1)OCC(C(=O)O)C2 (configuration not stated) | 139 to 141 °C
87 | CCOC(=O)c1c(C2CC2)csc1N | 70 to 72 °C
88 | CC(C)(C)NC(=O)NC(=O)CCl | 109 to 112 °C
89 | Cc1nc2s[nH]c(=O)c2c(C)c1C | 236 to 238 °C
90 | Nc1ncn(CC(=O)NCc2ccccc2)n1 | 181 to 183 °C
91 | O=C(O)c1csc(C(=O)CCl)c1 | 147 to 149 °C
92 | Cc1cc(Oc2ccc(C(=O)O)cn2)ccc1C(C)C | 122 to 124 °C
93 | NC(=O)c1cc(C(=O)O)c[nH]1 | 344 to 346 °C
94 | CCOC(=O)C1=NN(c2ccc(Cl)cc2)C(=O)C1 | 141 to 143 °C
95 | COC(=O)C1CCCc2[nH]ncc21 (configuration not stated) | 84 to 86 °C
96 | NC(=S)c1cc2ccccc2oc1=O | 241 to 243 °C
97 | O=C(O)CN1C(=O)COc2cc(Br)ccc21 | 234 to 236 °C
98 | O=C(O)Cn1cncn1 | 199 to 201 °C
99 | COc1cc(OC)cc(N2CCCNCC2)c1 | 50 to 52 °C
100 | CC(C)c1cc(C(=O)O)cc(O)n1 | 309 to 311 °C
101 | O=C(O)c1cnc2scc(-c3ccccc3)n2c1=O | 244 to 246 °C

Row | SMILES | melting point
102 | Cc1ccc(NC(=O)C(C)C)cc1N | 160 to 162 °C
103 | CC(C)c1ncncc1C(=O)O | 134 to 136 °C
104 | O=C(O)CCCSc1nc2ccccc2[nH]1 | 120 to 122 °C
105 | CC(C)(C)OC(=O)N1CCN(c2ccc(CN)cc2F)CC1 | 69 to 71 °C
106 | CCOC(=O)C(NS(=O)(=O)CC)C(=O)OCC | 51 to 53 °C
107 | COC(=O)c1ccc2[nH]c(=O)[nH]c2c1 | 303 to 305 °C
108 | CC(C)(C)C(=O)NCC(=O)O | 132 to 134 °C
109 | O=C(O)C(O)c1cc(Cl)cc(Cl)c1 (configuration not stated) | 99 to 101 °C
110 | COc1ccc(CCl)cc1C#N | 99 to 101 °C
111 | CC(=O)Nc1ccc(S(=O)(=O)NCc2ccc(C(=O)O)cc2)cc1 | 269 to 271 °C
112 | O=C(O)Cc1ccc2c(c1)CCCC2 | 78 to 80 °C
113 | CC(C)N(CCC(=O)O)C(=O)OC(C)(C)C | 65 to 67 °C
114 | O=C(O)c1cccnc1Nc1cc(F)ccc1F | 248 to 250 °C
115 | CC(C)(C)S(=O)(=O)CC(=O)O | 89 to 91 °C
116 | CNC(=O)COc1cccc(Br)c1 | 94 to 96 °C
117 | COC(=O)c1c(S)nc(=O)[nH]c1C | 225 to 227 °C
118 | N#Cc1cccc(Oc2ccc(N)cc2)c1 | 39 to 41 °C
119 | Nc1nnc(CC2CC2)o1 | 141 to 143 °C
120 | CCCc1nnc(S)n1CC(=O)O | 226 to 228 °C
121 | O=C(C(Cl)c1ccccc1)N1CCCCC1 (configuration not stated) | 63 to 74 °C
122 | CCOC(=O)c1csc(NC)n1 | 115 to 117 °C
123 | Nc1ccccc1NS(=O)(=O)c1ccccc1 | 169 to 171 °C
124 | Cc1ccccc1-n1cnnc1S | 144 to 146 °C
125 | CCOC(=O)Nc1cccc(C(=O)O)c1 | 196 to 198 °C

Row | SMILES | melting point
126 | CC(=O)N(C)c1nc(CCl)cs1 | 139 to 141 °C
127 | COc1ccc(-c2nnc(N)o2)cc1OC | 235 to 237 °C
128 | O=[N+]([O-])c1cnccc1S | 109 to 111 °C
129 | O=C(O)CCc1ccccc1[N+](=O)[O-] | 109 to 111 °C
130 | OC(c1ccc(F)cc1)C1CCNCC1 (configuration not stated) | 146 to 148 °C
131 | N#Cc1ccccc1NCc1ccco1 | 60 to 62 °C
132 | Cc1ccc(F)c(N2CCCC(Br)C2=O)c1 (configuration not stated) | 74 to 76 °C
133 | COc1ccccc1Nc1ccc([N+](=O)[O-])cc1N | 149 to 151 °C
134 | O=C(O)CCc1nnc(C2CCCC2)o1 | 62 to 64 °C
135 | Sc1nnc(COc2ccccc2Cl)o1 | 135 to 137 °C
136 | CC(O)C(NS(=O)(=O)c1cccs1)C(=O)O (configuration not stated) | 183 to 185 °C
137 | O=C(O)c1cccn1Cc1ccccc1 | 124 to 126 °C
138 | CC(C)Oc1ccc(C(O)CN2CCN(C)CC2)cc1 (configuration not stated) | 103 to 105 °C
139 | O=C(O)C1CCCCN1S(=O)(=O)c1cccs1 (configuration not stated) | 107 to 109 °C
140 | O=C(Cc1cccc(F)c1)c1ccc(Cl)c(Cl)c1 | 121 to 123 °C
141 | CSC(C(=O)O)c1ccccc1 (configuration not stated) | 75 to 77 °C
142 | NC(=S)C1(NC(=O)c2ccccc2)CCCC1 | 189 to 191 °C
143 | CC1(C(=O)O)CCCCN1C(=O)c1ccccc1 (configuration not stated) | 187 to 189 °C
144 | Nc1nnc(-c2cccnc2)[nH]1 | 207 to 209 °C
145 | Cc1cc(C)c([N+](=O)[O-])c(=O)[nH]1 | 179 to 181 °C
146 | Cc1cc(Br)ccc1SCC(=O)O | 125 to 127 °C
147 | CC1(C)CCCC(C)(C)N1O | 36 to 38 °C
